Source: ChEMBL document CHEMBL5260838 (J Med Chem, 2019)
In brackets after ≈: the same amount, converted by molar mass. One block for each compound: values may come before it.

Experiments:
[1] = biological target: T1, Sodium channel protein type 9 subunit alpha (Homo sapiens, UniProt Q15858); assay: Displacement of [3H]GX-545 from human Nav1.7 alpha subunit expressed in HEK293 cells co-expressing beta1 subunit by liquid scintillation counting analysis; assay type: cell-based
[2] = biological target: T1, Sodium channel protein type 9 subunit alpha; assay: Inhibition of human Nav1.7 alpha subunit expressed in HEK293 cells co-expressing beta1 subunit at -60 mV holding potential by whole-cell patch voltage clamp electrophysiology recording; assay type: cell-based
[3] = Lipophilicity, logD of the compound at pH 7.4; assay type: physicochemical; settings: buffer
[4] = Cmax in FVB mouse at 30 mg/kg, po; assay type: ADME, organism-based; design: dose 30 mg/kg, route po; settings: in vivo
[5] = Apparent permeability from apical to basolateral side in MDCK1 cells; assay type: ADME, cell-based, Canis lupus familiaris; settings: dog, MDCK
[6] = Cmax in Sprague-Dawley rat at 5 mg/kg, po; assay type: ADME, organism-based; design: dose 5 mg/kg, route po; settings: in vivo
[7] = biological target: Sodium channel protein type 8 subunit alpha (Homo sapiens, UniProt Q9UQD0); assay: Inhibition of human Nav1.6 alpha subunit expressed in HEK293 cells co-expressing beta1 subunit at -35 mV holding potential by PatchXpress automated voltage clamp electrophysiology technique; assay type: cell-based
[8] = biological target: Sodium channel protein type 1 subunit alpha (Homo sapiens, UniProt P35498); assay: Inhibition of human Nav1.1 alpha subunit expressed in HEK293 cells co-expressing beta1 subunit at -40 mV holding potential by PatchXpress automated voltage clamp electrophysiology technique; assay type: cell-based
[9] = biological target: Sodium channel protein type 9 subunit alpha (Rattus norvegicus, UniProt O08562); assay: Inhibition of rat Nav1.7 at -60 mV holding potential by PatchXpress automated voltage clamp electrophysiology technique
[10] = system: mouse breast cancer resistant protein (Bcrp); assay: Apparent permeability from apical to basolateral side in MDCK-II cells expressing mouse breast cancer resistant protein; assay type: ADME, cell-based, Canis lupus familiaris; settings: dog
[11] = AUC in FVB mouse at 30 mg/kg, po; assay type: ADME, organism-based; design: dose 30 mg/kg, route po; settings: in vivo
[12] = Protein binding in rat plasma; assay type: ADME, cell-free; settings: read-out: PPB (converted)
[13] = biological target: Sodium channel protein type 9 subunit alpha (Mus musculus, UniProt Q62205); assay: Inhibition of mouse Nav1.7 at -60 mV holding potential by PatchXpress automated voltage clamp electrophysiology technique
Mus musculus [14] = assay: Antinociceptive activity against aconitine-induced pain in FVB mouse model expressing human Nav 1.7 I848T mutant assessed as reduction in nociceptive behavior at 10 mg/kg administered 120 mins prior to aconitine administration and measured after 70 mins relative to control; assay type: functional; design: scale not given: the % may be the effect or the level left; settings: time 190 min, 3.167 h
MDR1 = assay: Apparent permeability from apical to basolateral side in MDCK1 cells expressing MDR1; assay type: ADME, cell-based, Canis lupus familiaris; settings: dog, MDCK-MDR1
[15] = Kinetic solubility of compound; assay type: physicochemical; settings: read-out: Kinetic_solubility
[16] = Half-life in Sprague-Dawley rat at 1 mg/kg, iv; assay type: ADME, organism-based; settings: in vivo
[17] = biological target: Sodium channel protein type 5 subunit alpha (Homo sapiens, UniProt Q14524); assay: Inhibition of human Nav1.5 alpha subunit expressed in HEK293 cells co-expressing beta1 subunit at -60 mV holding potential by PatchXpress automated voltage clamp electrophysiology technique; assay type: cell-based
[18] = Volume of distribution at steady state in Sprague-Dawley rat at 1 mg/kg, iv; assay type: ADME, organism-based; settings: in vivo, read-out: Vdss
[19] = Volume of distribution at steady state in FVB mouse at 1 mg/kg, iv; assay type: ADME, organism-based; settings: FVB, in vivo, read-out: Vdss
[20] = biological target: Sodium channel protein type 2 subunit alpha (Homo sapiens, UniProt Q99250); assay: Inhibition of human Nav1.2 alpha subunit expressed in HEK293 cells co-expressing beta1 subunit at -35 mV holding potential by PatchXpress automated voltage clamp electrophysiology technique; assay type: cell-based
[21] = Oral bioavailability in FVB mouse at 30 mg/kg; assay type: ADME, organism-based; settings: in vivo
[22] = Half-life in Sprague-Dawley rat at 5 mg/kg, po; assay type: ADME, organism-based; settings: in vivo
[23] = Clearance in FVB mouse at 1 mg/kg, iv; assay type: ADME, organism-based; settings: in vivo
[24] = Half-life in FVB mouse at 1 mg/kg, iv; assay type: ADME, organism-based; settings: FVB, in vivo
[25] = Half-life in FVB mouse at 30 mg/kg, po; assay type: ADME, organism-based; settings: in vivo
[26] = Protein binding in human plasma; assay type: ADME, cell-free; settings: read-out: PPB (converted)
[27] = biological target: Sodium channel protein type 10 subunit alpha (Mus musculus) (UniProt Q6QIY3); assay: Inhibition of TTX-resistant Nav1.8 in mouse dorsal root ganglion neuron at 10 uM by voltage clamp recording relative to control; assay type: tissue-based; settings: DRG neuron
[28] = Clearance in Sprague-Dawley rat at 1 mg/kg, iv; assay type: ADME, organism-based; settings: in vivo
[29] = Protein binding in mouse plasma; assay type: ADME, cell-free; settings: read-out: PPB (converted)
Mus musculus [30] = assay: Antinociceptive activity against aconitine-induced pain in FVB mouse model expressing human Nav 1.7 I848T mutant assessed as reduction in nociceptive behavior at 3 mg/kg administered 120 mins prior to aconitine administration and measured after 70 mins relative to control; assay type: functional; design: scale not given: the % may be the effect or the level left; settings: time 190 min, 3.167 h
[31] = Oral bioavailability in Sprague-Dawley rat at 5 mg/kg; assay type: ADME, organism-based; settings: in vivo
[32] = AUC in Sprague-Dawley rat at 5 mg/kg, po; assay type: ADME, organism-based; design: dose 5 mg/kg, route po; settings: in vivo
Mus musculus [33] = assay: Antinociceptive activity against aconitine-induced pain in FVB mouse model expressing human Nav 1.7 I848T mutant assessed as reduction in nociceptive behavior at 6 mg/kg administered 120 mins prior to aconitine administration and measured after 70 mins relative to control; assay type: functional; design: scale not given: the % may be the effect or the level left; settings: time 190 min, 3.167 h
[34] = Cmax in mouse at 30 mg/kg, po; assay type: ADME, organism-based; design: dose 30 mg/kg, route po; settings: in vivo
[35] = Volume of distribution at steady state in mouse at 1 mg/kg, iv; assay type: ADME, organism-based; settings: in vivo, read-out: Vdss
[36] = AUC in mouse at 30 mg/kg, po; assay type: ADME, organism-based; design: dose 30 mg/kg, route po; settings: in vivo
[37] = Oral bioavailability in mouse at 30 mg/kg; assay type: ADME, organism-based; settings: in vivo
[38] = Solubility of compound; assay type: physicochemical

T1 sequence (Q15858 whole entry): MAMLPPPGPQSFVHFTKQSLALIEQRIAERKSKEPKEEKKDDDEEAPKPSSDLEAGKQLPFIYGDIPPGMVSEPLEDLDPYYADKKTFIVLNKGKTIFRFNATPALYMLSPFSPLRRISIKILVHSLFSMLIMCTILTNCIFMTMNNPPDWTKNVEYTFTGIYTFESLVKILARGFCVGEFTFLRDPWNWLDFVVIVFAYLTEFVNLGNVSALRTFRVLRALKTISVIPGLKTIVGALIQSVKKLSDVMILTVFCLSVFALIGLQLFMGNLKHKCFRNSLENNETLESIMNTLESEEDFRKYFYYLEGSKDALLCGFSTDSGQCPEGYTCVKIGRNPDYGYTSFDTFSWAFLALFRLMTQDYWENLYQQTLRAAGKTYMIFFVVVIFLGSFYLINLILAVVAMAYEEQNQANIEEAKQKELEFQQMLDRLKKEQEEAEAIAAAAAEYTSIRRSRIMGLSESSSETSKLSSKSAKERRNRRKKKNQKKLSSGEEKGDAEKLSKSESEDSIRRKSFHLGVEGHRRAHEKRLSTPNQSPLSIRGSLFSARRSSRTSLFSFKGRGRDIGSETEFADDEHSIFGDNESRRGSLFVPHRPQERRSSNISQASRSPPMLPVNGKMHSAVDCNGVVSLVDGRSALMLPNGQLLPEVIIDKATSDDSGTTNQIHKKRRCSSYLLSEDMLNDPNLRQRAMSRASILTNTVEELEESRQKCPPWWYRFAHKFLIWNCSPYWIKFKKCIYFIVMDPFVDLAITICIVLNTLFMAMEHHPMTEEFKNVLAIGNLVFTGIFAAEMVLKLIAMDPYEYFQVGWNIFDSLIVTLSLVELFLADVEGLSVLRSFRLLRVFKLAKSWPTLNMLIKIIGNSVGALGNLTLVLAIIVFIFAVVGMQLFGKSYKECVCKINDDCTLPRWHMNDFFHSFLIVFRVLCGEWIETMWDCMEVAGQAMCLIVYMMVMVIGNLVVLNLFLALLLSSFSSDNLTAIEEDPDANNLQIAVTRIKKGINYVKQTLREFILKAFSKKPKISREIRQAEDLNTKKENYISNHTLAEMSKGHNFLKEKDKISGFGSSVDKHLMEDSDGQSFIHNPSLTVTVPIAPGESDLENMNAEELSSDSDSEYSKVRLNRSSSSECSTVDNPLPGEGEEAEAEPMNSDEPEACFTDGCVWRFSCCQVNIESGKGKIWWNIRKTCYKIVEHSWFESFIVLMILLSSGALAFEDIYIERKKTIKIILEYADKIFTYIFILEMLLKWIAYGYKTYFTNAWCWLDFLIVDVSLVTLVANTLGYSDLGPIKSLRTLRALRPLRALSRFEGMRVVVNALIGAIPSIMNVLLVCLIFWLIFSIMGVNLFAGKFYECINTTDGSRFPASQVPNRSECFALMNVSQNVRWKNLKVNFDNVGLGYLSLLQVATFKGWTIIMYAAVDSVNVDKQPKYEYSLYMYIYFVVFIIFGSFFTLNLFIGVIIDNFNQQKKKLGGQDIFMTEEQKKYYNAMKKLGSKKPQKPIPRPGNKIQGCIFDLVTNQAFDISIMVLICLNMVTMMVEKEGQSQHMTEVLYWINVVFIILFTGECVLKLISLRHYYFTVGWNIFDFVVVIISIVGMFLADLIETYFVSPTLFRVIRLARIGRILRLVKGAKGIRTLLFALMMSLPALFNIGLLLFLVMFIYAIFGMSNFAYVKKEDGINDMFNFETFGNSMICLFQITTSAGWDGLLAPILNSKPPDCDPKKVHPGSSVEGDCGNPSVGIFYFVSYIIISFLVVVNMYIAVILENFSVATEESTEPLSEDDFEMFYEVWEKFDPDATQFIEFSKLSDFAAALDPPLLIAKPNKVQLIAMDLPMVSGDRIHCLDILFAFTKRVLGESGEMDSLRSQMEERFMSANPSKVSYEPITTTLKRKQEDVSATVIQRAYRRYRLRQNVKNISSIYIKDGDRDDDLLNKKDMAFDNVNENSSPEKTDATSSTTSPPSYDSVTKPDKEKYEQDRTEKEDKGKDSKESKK
Chain of Sodium channel protein type 10 subunit alpha (Mus musculus) (Q6QIY3 whole entry): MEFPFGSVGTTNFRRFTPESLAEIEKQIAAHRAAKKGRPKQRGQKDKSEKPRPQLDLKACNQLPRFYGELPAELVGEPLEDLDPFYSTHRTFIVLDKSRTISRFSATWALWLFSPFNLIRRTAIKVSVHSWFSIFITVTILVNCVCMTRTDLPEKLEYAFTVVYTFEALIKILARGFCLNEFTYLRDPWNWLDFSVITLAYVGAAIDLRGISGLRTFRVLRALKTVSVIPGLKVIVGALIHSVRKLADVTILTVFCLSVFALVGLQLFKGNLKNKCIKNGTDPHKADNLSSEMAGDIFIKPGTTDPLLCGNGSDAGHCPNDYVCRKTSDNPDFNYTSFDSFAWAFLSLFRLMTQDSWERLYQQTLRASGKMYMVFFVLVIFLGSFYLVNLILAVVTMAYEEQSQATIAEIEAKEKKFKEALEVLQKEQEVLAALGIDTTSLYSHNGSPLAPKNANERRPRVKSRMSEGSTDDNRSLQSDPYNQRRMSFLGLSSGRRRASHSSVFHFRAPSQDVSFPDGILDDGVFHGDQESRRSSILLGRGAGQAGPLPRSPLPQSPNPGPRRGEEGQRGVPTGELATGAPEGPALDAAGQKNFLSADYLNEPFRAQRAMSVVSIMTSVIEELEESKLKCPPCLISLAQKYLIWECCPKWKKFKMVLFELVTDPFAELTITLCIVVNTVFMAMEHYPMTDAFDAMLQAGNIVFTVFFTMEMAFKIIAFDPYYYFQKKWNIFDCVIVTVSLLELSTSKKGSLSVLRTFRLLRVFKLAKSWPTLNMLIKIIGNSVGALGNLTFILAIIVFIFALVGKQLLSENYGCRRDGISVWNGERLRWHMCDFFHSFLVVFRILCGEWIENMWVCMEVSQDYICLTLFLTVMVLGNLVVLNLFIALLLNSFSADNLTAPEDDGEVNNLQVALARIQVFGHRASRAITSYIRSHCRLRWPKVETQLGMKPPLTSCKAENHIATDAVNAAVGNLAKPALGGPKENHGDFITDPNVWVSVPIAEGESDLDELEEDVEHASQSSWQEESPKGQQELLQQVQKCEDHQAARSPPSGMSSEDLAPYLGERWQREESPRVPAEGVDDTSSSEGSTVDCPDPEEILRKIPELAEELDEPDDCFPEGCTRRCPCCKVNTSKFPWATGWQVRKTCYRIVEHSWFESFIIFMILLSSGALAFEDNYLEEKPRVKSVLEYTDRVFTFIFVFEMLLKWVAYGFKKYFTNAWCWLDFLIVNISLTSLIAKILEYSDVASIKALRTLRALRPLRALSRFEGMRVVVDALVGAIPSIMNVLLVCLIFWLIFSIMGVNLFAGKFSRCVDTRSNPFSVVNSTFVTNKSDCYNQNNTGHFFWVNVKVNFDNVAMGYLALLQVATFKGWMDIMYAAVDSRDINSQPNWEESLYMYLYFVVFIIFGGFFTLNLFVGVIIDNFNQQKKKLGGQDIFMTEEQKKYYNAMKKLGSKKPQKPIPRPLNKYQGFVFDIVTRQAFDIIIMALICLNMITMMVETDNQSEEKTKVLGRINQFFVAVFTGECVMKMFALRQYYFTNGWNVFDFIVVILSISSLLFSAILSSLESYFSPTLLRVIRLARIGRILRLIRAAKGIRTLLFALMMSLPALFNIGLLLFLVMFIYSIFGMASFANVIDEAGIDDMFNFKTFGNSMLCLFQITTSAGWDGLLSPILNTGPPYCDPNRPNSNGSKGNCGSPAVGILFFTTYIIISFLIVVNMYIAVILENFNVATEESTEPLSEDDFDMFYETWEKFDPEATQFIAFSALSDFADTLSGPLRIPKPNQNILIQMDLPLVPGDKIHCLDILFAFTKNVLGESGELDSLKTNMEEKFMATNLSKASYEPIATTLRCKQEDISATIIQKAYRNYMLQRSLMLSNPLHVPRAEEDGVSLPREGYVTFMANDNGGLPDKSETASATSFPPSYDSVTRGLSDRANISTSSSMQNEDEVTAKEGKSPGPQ

SMILES: CS(=O)(=O)NC(=O)c1cc(Cl)c(OCC23CC4CC(CC(F)(C4)C2)C3)cc1F
IC50 [1]: 0.357 µM

SMILES: CS(=O)(=O)NC(=O)c1cc(Cl)c(OCCC2CCCCC2)cc1F
logD ([3]; read-out: logD): 1.5 | IC50 [2]: 0.017 µM | IC50 [1]: 0.5 µM

SMILES: CCc1cc(C(=O)NS(C)(=O)=O)c(F)cc1OCC12CC3CC(CC(C3)C1)C2
IC50 [2]: 0.006 µM | IC50 [1]: 0.015 µM

SMILES: CS(=O)(=O)NC(=O)c1cc(Cl)c(OCC23CC4CC(CC(O)(C4)C2)C3)cc1F
IC50 [2]: 2.2 µM | IC50 [1]: > 10 µM

SMILES: CC(C)c1cc(C(=O)NS(C)(=O)=O)c(F)cc1OCC12CC3CC(CC(C3)C1)C2
IC50 [2]: 0.01 µM | IC50 [1]: 0.028 µM

SMILES: CS(=O)(=O)NC(=O)c1cc(C2CC2)c(OCC23CC4CC(C2)C(F)(F)C(C4)C3)cc1F
IC50 [2]: 0.0031 µM | IC50 [1]: 0.008 µM

SMILES: CS(=O)(=O)NC(=O)c1cc(C2CC2)c(OCC23CC4CC(CC(C4)C2)C3)cc1F
IC50 [1]: 0.006 µM

SMILES: Cc1cc(C(=O)NS(C)(=O)=O)c(F)cc1OCC12CC3CC(CC(C3)C1)C2
IC50 [2]: 0.006 µM | IC50 [1]: 0.037 µM

SMILES: CS(=O)(=O)NC(=O)c1cc(Cl)c(OCC2CCCCC2)cc1F
logD ([3]; read-out: logD): 1.4 | IC50 [2]: 0.043 µM | IC50 [1]: 0.18 µM

SMILES: CC1(COc2cc(F)c(C(=O)NS(=O)(=O)C3CC3)cc2C2CC2)CCC(C(F)(F)F)CC1 (configuration not stated)
IC50 [2]: 0.006 µM | IC50 [1]: 0.01 µM

SMILES: CS(=O)(=O)NC(=O)c1cc(Cl)c(OCC2CCOCC2)cc1F
logD ([3]; read-out: logD): 0.21 | IC50 [2]: 7.4 µM | IC50 [1]: > 10 µM

SMILES: CS(=O)(=O)NC(=O)c1cc(Cl)c(OCCC2CC2)cc1F
logD ([3]; read-out: logD): 0.4 | IC50 [2]: 0.44 µM | IC50 [1]: 2.7 µM

SMILES: CC1(COc2cc(F)c(C(=O)NS(=O)(=O)C3CC3)cc2C2CC2)CCC(F)(F)CC1
Cmax [4]: 69 µM | Papp A→B [5]: 22 ×10⁻⁶ cm/s | Cmax [6]: 25 µM | IC50 [7]: 0.049 µM | IC50 [8]: 0.048 µM | IC50 [9]: 0.009 µM | Papp A→B [10]: 0.4 ×10⁻⁶ cm/s | AUC [11]: 350 µM·h | fraction unbound [12]: 0.002 | IC50 [13]: 0.0025 µM | logD ([3]; read-out: logD): 1.4 | Activity (Mus musculus [14]): 84% | Papp A→B (MDR1): 11 ×10⁻⁶ cm/s | solubility kinetic [15]: 32 µM (≈ 14.3 µg/mL) | half-life [16]: 9 h | IC50 [17]: 0.26 µM | Vd [18]: 0.29 L/kg | Vd [19]: 0.28 L/kg | IC50 [20]: 0.006 µM | bioavailability [21]: 49% | half-life [22]: 16.9 h | clearance [23]: 1.6 mL/min/kg | half-life [24]: 2.1 h | half-life [25]: 15.6 h | fraction unbound [26]: 0.004 | inhibition [27]: 26% | clearance [28]: 0.4 mL/min/kg | fraction unbound [29]: 0.002 | Activity (Mus musculus [30]): 56% | bioavailability [31]: 66% | AUC [32]: 160 µM·h | Activity (Mus musculus [33]): 72%

Second part, the compound after the results:

IC50 [2]: 0.041 µM | IC50 [1]: 0.64 µM
SMILES: CS(=O)(=O)NC(=O)c1cc(F)c(OCC23CC4CC(CC(C4)C2)C3)cc1F

logD ([3]; read-out: logD): 1.1 | IC50 [2]: 0.068 µM | IC50 [1]: 0.52 µM
SMILES: CS(=O)(=O)NC(=O)c1cc(Cl)c(OCC2CCCC2)cc1F

IC50 [1]: 0.29 µM
SMILES: CS(=O)(=O)NC(=O)c1cc(Cl)c(OCC23CC4CC(C2)C(F)(F)C(C4)C3)cc1F

logD ([3]; read-out: logD): 1.3 | IC50 [2]: 0.26 µM | IC50 [1]: 1.2 µM
SMILES: CS(=O)(=O)NC(=O)c1cc(Cl)c(OC2CCCCC2)cc1F

IC50 [2]: 0.059 µM | IC50 [1]: 0.33 µM
SMILES: CS(=O)(=O)NC(=O)c1ccc(OCC23CC4CC(CC(C4)C2)C3)c(Cl)c1

IC50 [2]: 0.57 µM | IC50 [1]: 2.3 µM
SMILES: CS(=O)(=O)NC(=O)c1cc(Cl)c(OCC23CC4CC(CC(C4)C2)C3)cc1Cl

IC50 [2]: 0.075 µM | IC50 [1]: 0.304 µM
SMILES: COCCS(=O)(=O)NC(=O)c1cc(C2CC2)c(OCC2CCC(F)(F)CC2)cc1F

IC50 [1]: 0.033 µM
SMILES: O=C(NS(=O)(=O)C1CC1)c1cc(C2CC2)c(OCC2CCC(F)(F)CC2)cc1F

IC50 [2]: 0.0007 µM | IC50 [1]: 0.022 µM
SMILES: CS(=O)(=O)NC(=O)c1cc(C2CC2)c(OCC2CCCCC2)cc1F

IC50 [2]: 0.005 µM | IC50 [1]: 0.017 µM
SMILES: CCC1(COc2cc(F)c(C(=O)NS(=O)(=O)C3CC3)cc2C2CC2)CCC(F)(F)CC1

Papp A→B [5]: 13 ×10⁻⁶ cm/s | Cmax [34]: 45 µM | logD [3]: 3.5 | Vd [35]: 1.2 L/kg | AUC [36]: 240 µM·h | bioavailability [37]: 100% | solubility [38]: 31 µM (≈ 12.9 µg/mL)
SMILES: CS(=O)(=O)NC(=O)c1cc(Cl)c(OCC23CC4CC(CC(C4)C2)C3)cc1F

IC50 [2]: 0.752 µM | IC50 [1]: 2.4 µM
SMILES: CS(=O)(=O)NC(=O)c1cc(Cl)c(OCC23CC4(F)CC(F)(CC(F)(C4)C2)C3)cc1F
